Laboratory results reported in ChEMBL document CHEMBL3232913, “Structural basis for the identification of the N-terminal domain of coronavirus nucleocapsid protein as an antiviral target” (2014).
The source made the active and inactive calls. The rule behind the calls is not given here.

Tests used:
[1] = target: T1, Nucleoprotein (Human coronavirus OC43) (UniProt P33469); assay: Inhibition of human coronavirus OC43 nucleocapsid protein expressed in Escherichia coli BL21(DE3) assessed as reduction of RNA-binding capacity by surface plasmon resonance analysis relative to control; details: concentration not given here
T1 sequence (whole entry): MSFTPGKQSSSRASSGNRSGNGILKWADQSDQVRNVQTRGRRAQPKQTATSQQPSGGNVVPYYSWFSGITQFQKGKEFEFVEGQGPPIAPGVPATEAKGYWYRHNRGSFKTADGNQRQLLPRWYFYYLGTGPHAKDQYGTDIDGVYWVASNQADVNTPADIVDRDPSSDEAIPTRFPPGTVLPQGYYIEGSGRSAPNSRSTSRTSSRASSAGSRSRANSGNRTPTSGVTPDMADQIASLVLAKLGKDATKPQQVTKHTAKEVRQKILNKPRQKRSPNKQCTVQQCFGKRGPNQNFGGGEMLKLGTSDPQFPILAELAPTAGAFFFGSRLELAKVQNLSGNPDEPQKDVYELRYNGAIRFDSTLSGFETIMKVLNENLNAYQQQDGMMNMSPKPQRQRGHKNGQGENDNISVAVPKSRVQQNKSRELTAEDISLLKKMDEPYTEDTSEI

Human coronavirus OC43 [2] = assay: Inhibition of Human coronavirus OC43 replication infected in human 293T cells transfected with wild-type HCoV-OC43 N protein assessed as M mRNA level at 10 uM by RT-PCR analysis (reference value: 2.41 no unit); format: functional
Human coronavirus OC43 [3] = assay: Inhibition of Human coronavirus OC43 replication infected in human 293T cells assessed as M mRNA level at 10 uM by RT-PCR analysis (reference value: 0.32 no unit); format: functional
[4] = target: T1, Nucleoprotein (Human coronavirus OC43); details: 10 uM
Description: Inhibition of human coronavirus OC43 nucleocapsid protein expressed in Escherichia coli BL21(DE3) assessed as reduction of RNA-binding capacity by measuring resonance unit at 10 uM by surface plasmon resonance analysis relative to control

## O=C1C(Cl)=C(NCCN2CCOCC2)C(=O)c2ncccc21
[1]
  inhibition: > 10%
Human coronavirus OC43 [2]
  fold change (FC): 2.46
Human coronavirus OC43 [3]
  fold change (FC): 0.22

## CN(C)CC(=O)Nc1ccc2[nH]c(=O)c3ccccc3c2c1.Cl [PJ34]
[1]
  inhibition: > 10%
Human coronavirus OC43 [2]
  fold change (FC): 0.65
Human coronavirus OC43 [3]
  fold change (FC): 0.11
[4]
  inhibition: Active
